This experiment deals with Coagulation factor XI (Homo sapiens, UniProt P03951). Put plainly: FXIa inhibitor IC50 values, dose response, biochemical, hits from 1536-well screen (AID 846). Conditions: pH 7.4; 23 °C.
Chain of Coagulation factor XI (P03951 19-387 limits assumed): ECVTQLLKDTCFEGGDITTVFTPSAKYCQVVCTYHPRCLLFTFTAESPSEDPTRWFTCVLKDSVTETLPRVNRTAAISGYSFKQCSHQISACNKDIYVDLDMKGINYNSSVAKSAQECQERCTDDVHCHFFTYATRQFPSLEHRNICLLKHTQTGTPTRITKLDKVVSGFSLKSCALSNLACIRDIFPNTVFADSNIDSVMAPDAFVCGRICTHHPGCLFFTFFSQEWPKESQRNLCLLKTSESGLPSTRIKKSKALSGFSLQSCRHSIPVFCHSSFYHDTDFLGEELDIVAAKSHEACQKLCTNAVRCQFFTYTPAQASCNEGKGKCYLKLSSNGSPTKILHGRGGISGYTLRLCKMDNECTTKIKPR
Chain of Coagulation factor XI (P03951 388-625 limits assumed): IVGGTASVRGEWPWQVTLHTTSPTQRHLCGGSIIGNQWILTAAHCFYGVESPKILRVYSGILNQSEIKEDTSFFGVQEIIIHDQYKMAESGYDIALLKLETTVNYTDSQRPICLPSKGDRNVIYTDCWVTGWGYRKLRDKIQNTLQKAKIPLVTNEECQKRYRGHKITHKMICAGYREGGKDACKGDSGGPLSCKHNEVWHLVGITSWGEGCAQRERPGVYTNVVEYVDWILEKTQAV

Consider `CN1CCN(S(=O)(=O)Cc2ccc(Cl)cc2)CC1` [SMR000456888], for which the half-maximal inhibitory concentration (IC50) was above 50 µM.
The same measure for `Clc1ccc(-c2csc(N3CCOCC3)n2)cc1` [4-[4-(4-chlorophenyl)-2-thiazolyl]morpholine]: above 50 µM; for `CC1(C)[N-]c2ccc([N+](=O)[O-])c(N)c2[N+]1=O` [MLS001012383]: above 50 µM.
Regarding `C=CCOC(=O)C1C(C)=Nc2[nH]c(=O)[nH]c(=O)c2C1c1ccccc1` (configuration not stated) [7-methyl-2,4-dioxo-5-phenyl-5,8-dihydro-1H-pyrido[2,3-d]pyrimidine-6-carboxylic acid prop-2-enyl ester], the half-maximal inhibitory concentration (IC50) is above 50 µM.
The same measure for `O=C1OC(Nc2ccc(F)c([N+](=O)[O-])c2)c2ccccc21` (configuration not stated) [SMR000434389]: above 50 µM; for `NS(=O)(=O)c1ccc(Cl)cc1[N+](=O)[O-]`: above 50 µM; for `CCOc1ccc(-c2c(C)[n+](-c3ccc(OCC)cc3)c3n2CCCCC3)cc1`: 0.958 µM.
Take `O=C(Cn1[nH]c(=O)c2ccccc2c1=O)Nc1cccc(S(=O)(=O)N2CCCCCC2)c1` [SMR000369234]: the concentration for half-maximal inhibition (IC50) is above 50 µM.
Compound `O=C(Oc1ccc2c(=O)c(Cl)coc2c1)c1cccnc1` [MLS000523505] displayed a concentration for half-maximal inhibition (IC50) above 50 µM.
`Cc1cc(F)ccc1S(=O)(=O)Nc1ncnc2sc3c(c12)CCC3` [N-(7,8-dihydro-6H-cyclopenta[4,5]thieno[1,2-c]pyrimidin-1-yl)-4-fluoro-2-methylbenzenesulfonamide] came in with a concentration for half-maximal inhibition (IC50) above 50 µM.
In turn, `CN(C)c1ccc(C(=S)N2CCN(c3ccc([N+](=O)[O-])cc3)CC2)cc1` [MLS001033622] gave an IC50 above 50 µM.
The figure for `O=S(=O)([N-]c1nc2ccccc2nc1-[n+]1ccn(Cc2ccccc2)c1)c1ccc(Cl)cc1` [(4-chlorophenyl)sulfonyl-[3-[3-(phenylmethyl)imidazol-3-ium-1-yl]quinoxalin-2-yl]azanide] is above 50 µM; for `CCCNC(=O)C1CC(c2ccc(C(F)(F)F)cc2)=NO1` (configuration not stated) [N-propyl-3-[4-(trifluoromethyl)phenyl]-4,5-dihydro-1,2-oxazole-5-carboxamide] it is 14.3 µM.
Turning to `COCC(=O)Nc1ccccc1-c1ccccc1` [N-2-biphenylyl-2-methoxyacetamide], the concentration for half-maximal inhibition (IC50) was above 50 µM.
The figure for `CC/C=C/C(=O)N1CC2(CC(c3cccc(NC(=O)CCCCC)c3)=NO2)C[C@H]1C(N)=O` (stereo partly drawn) [(8S)-3-[3-(hexanoylamino)phenyl]-7-[(E)-pent-2-enoyl]-1-oxa-2,7-diazaspiro[4.4]non-2-ene-8-carboxamide] is 9.23 µM; for `O=C1OCC2OC(O)C(O)C(O)C2OC(=O)c2cc(O)c(O)c(O)c2-c2c(O)c(O)c3oc(=O)c4c(c(O)c(O)c5oc(=O)c2c3c54)-c2c1cc(O)c(O)c2O` (configuration not stated) [SMR000445568] it is 6.08 µM; for `CC(C)(C)C(=O)CSc1ncnc2c1cnn2-c1ccccc1` it is above 50 µM.
The figure for `Cc1ccc(S(=O)(=O)ON2C(=O)c3ccccc3C2=O)c(C)c1` [MLS000579570] is 1.08 µM; for `Cc1ccc(NC(=S)NCCc2ccccc2)nc1` [N-(2-Phenethyl)-N -(2-(5-methylpyridyl))thiourea] it is 5.5 µM; for `Cc1ccc(C(=O)NNC(=S)NC(=O)COc2ccccc2)cc1` [N-[[(4-methylbenzoyl)amino]carbamothioyl]-2-phenoxyacetamide] it is 3 µM.
`N#C/C(=C\c1cccnc1)c1nc2ccccc2[nH]1` [(E)-2-(1H-Benzoimidazol-2-yl)-3-pyridin-3-yl-acrylonitrile] registered a concentration for half-maximal inhibition (IC50) above 50 µM.
Compound `O=C(NCc1ccc2c3c(cccc13)C(=O)N2)c1cccs1` [N-[(2-oxo-1H-benzo[cd]indol-6-yl)methyl]thiophene-2-carboxamide] yielded an IC50 above 50 µM.
Regarding `FC(F)C(F)(F)C(F)(F)C(F)(F)c1cc(-c2ccccc2)n[nH]1` [MLS000106686], the IC50 was above 50 µM.
On to `CCOC(=O)C(=O)N(Nc1ccc(C)cc1)c1ccc(C)cc1`, for which the IC50 is above 50 µM.
As for `O=C(Oc1ccc(=O)n(-c2ccccc2)n1)c1ccc(Cl)cc1` [4-chlorobenzoic acid (6-oxo-1-phenyl-3-pyridazinyl) ester], the midpoint of inhibition, the IC50, lay at 5.6 µM.
The same measure for `COc1ccc(C=Nn2c(C)cc(C)cc2=O)cc1` [SMR000269659]: above 50 µM.
The same measure for `CCc1ccc(NC(=O)CCn2cccc2)cc1` [SMR000130982]: above 50 µM; for `O=C(NN=C1CCCC1)c1ccccc1OCc1ccc(Cl)cc1`: above 50 µM; for `COC(=O)c1cccc(NC(=O)CSc2nnc[nH]2)c1` [methyl 3-{[(4H-1,2,4-triazol-3-ylthio)acetyl]amino}benzoate]: above 50 µM.
In turn, `C=CCn1c(Cc2cccs2)nnc1SCC(=O)NCc1ccco1` [SMR000153108] gave an IC50 above 50 µM.
The compound `Cn1cccc1/C=C1\C(=O)NC(=O)N(Cc2ccccc2Cl)C1=O` [(5E)-1-[(2-chlorophenyl)methyl]-5-[(1-methylpyrrol-2-yl)methylidene]-1,3-diazinane-2,4,6-trione] had an IC50 above 50 µM.
In turn, `Cn1nc(C(=O)Nc2nc(-c3ccc(F)cc3)cs2)ccc1=O` [N-[4-(4-fluorophenyl)-1,3-thiazol-2-yl]-1-methyl-6-oxopyridazine-3-carboxamide] displayed an IC50 above 50 µM.
Turning to `O=C(CSc1ncccn1)NN=Cc1cccc(OC2CSC2)c1`, the IC50 was above 50 µM.
As for `CCOC(=O)CSc1nnc(-c2ccccc2)o1` [MLS000526656], the 50% inhibitory concentration (IC50) is above 50 µM.
In turn, `COc1cc(CN=Nc2cc(C)nc(NS(=O)(=O)c3ccccc3)n2)ccc1O` showed an IC50 above 50 µM.
In turn, `COc1cccc(NC(C)(C)c2nnnn2-c2c(C)cccc2C)c1` [N-[2-[1-(2,6-dimethylphenyl)tetrazol-5-yl]propan-2-yl]-3-methoxyaniline] yielded an IC50 above 50 µM.
The same measure for `C=CCNC(=S)N[N-][CH+]c1ccc(C)c([N+](=O)[O-])c1` [SMR000228955]: above 50 µM.

(Values after BindingDB's records for doi:10.7270/Q2H993J6 (Pcmd, 2008).)
